Results published in PubChem BioAssay AID248 (DTP/NCI, 2004).
“And” between values parts separate entries of the source, which are not always exact repeats. Equal entries are not always repeated. Toxic doses and inconclusive results are not listed. Rule as the data show it: active = T/C of 150% or more; inactive = T/C below 125%.

Tested on: L1210 leukemia ip in BDF1 mice, survival T/C
Assay: NCI In Vivo Anticancer Drug Screen. Data for tumor model L1210 Leukemia (intraperitoneal) in B6D2F1 (BDF1) mice
Settings: endpoint: mean survival time, higher = longer survival
Outline: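 Mice bearing the transplanted tumor received compound or vehicle. Survival of the treated group was divided by that of the vehicle-treated control group to give the ratio.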

[1] = dose: 12.5 mg/kg/injection, schedule: Q01DX009 (ip), vehicle: saline with Tween-80
[2] = dose: 100.0 mg/kg/injection, schedule: Q01DX009 (ip), vehicle: saline with Tween-80
[3] = dose: 200.0 mg/kg/injection, schedule: Q01DX009 (ip), vehicle: saline with Tween-80
[4] = dose: 100.0 mg/kg/injection, schedule: Q04DX003 (ip), vehicle: Klucel (hydroxypropylcellulose) (HPC)
[5] = dose: 100.0 mg/kg/injection, schedule: Q01DX001 (ip), vehicle: saline
[6] = dose: 100.0 mg/kg/injection, schedule: Q04DX003 (ip), vehicle: saline
[7] = dose: 200.0 mg/kg/injection, schedule: Q04DX003 (ip), vehicle: saline
[8] = dose: 50.0 mg/kg/injection, schedule: Q01DX009 (ip), vehicle: Klucel (hydroxypropylcellulose) (HPC)
[9] = dose: 100.0 mg/kg/injection, schedule: Q01DX009 (ip), vehicle: Klucel (hydroxypropylcellulose) (HPC)
[10] = dose: 200.0 mg/kg/injection, schedule: Q01DX009 (ip), vehicle: Klucel (hydroxypropylcellulose) (HPC)
[11] = dose: 100.0 mg/kg/injection, schedule: Q01DX001 (ip), vehicle: carboxymethylcellulose (CMC)
[12] = dose: 200.0 mg/kg/injection, schedule: Q01DX001 (ip), vehicle: carboxymethylcellulose (CMC)
[13] = dose: 400.0 mg/kg/injection, schedule: Q01DX001 (ip), vehicle: carboxymethylcellulose (CMC)
[14] = dose: 100.0 mg/kg/injection, schedule: Q04DX003 (ip), vehicle: saline with Tween-80
[15] = dose: 200.0 mg/kg/injection, schedule: Q04DX003 (ip), vehicle: saline with Tween-80

Measured: T/C

C/C=C/C[P+](c1ccccc1)(c1ccccc1)c1ccccc1
inactive: dose: 3.13 mg/kg/injection, schedule: Q01DX009 (ip), vehicle: saline 98 % of control | dose: 6.25 mg/kg/injection, schedule: Q01DX009 (ip), vehicle: saline 110 % of control | [1] 106 % of control | dose: 12.5 mg/kg/injection, schedule: Q01DX009 (ip), vehicle: saline 98 % of control | dose: 15.0 mg/kg/injection, schedule: Q01DX001 (ip), vehicle: saline 101 % of control | dose: 30.0 mg/kg/injection, schedule: Q01DX001 (ip), vehicle: saline 114 % of control

COc1cc(C(=O)Nc2ccc(NC3=NCCN3)cc2)cc(C(=O)Nc2ccc(NC3=NCCN3)cc2)c1
inactive: dose: 1.9 mg/kg/injection, schedule: Q01DX Z (ip), vehicle: methylcellulose (MC) 104 % of control | dose: 3.8 mg/kg/injection, schedule: Q01DX Z (ip), vehicle: methylcellulose (MC) 99 % of control | dose: 7.5 mg/kg/injection, schedule: Q01DX Z (ip), vehicle: methylcellulose (MC) 113 % of control | dose: 15.0 mg/kg/injection, schedule: Q01DX Z (ip), vehicle: methylcellulose (MC) 118 % of control

Cc1ccc(C(=O)C=C(C(F)(F)F)C(F)(F)F)cc1
inactive: dose: 6.25 mg/kg/injection, schedule: Q04DX003 (ip), vehicle: saline 94 % of control | dose: 12.5 mg/kg/injection, schedule: Q04DX003 (ip), vehicle: saline 96 % of control | dose: 25.0 mg/kg/injection, schedule: Q04DX003 (ip), vehicle: saline 103 % of control

O=c1[nH]c2ccc(I)cc2c(=O)o1
inactive: [2] 100 % of control | [3] 100 % of control | dose: 400.0 mg/kg/injection, schedule: Q01DX009 (ip), vehicle: saline with Tween-80 101 % of control

CC(=O)Nc1ccc(SSSc2ccc(NC(C)=O)cc2)cc1
inactive: dose: 1.56 mg/kg/injection, schedule: Q01DX009 (ip), vehicle: water 100 % of control | dose: 3.12 mg/kg/injection, schedule: Q01DX009 (ip), vehicle: water 92 % of control | dose: 6.25 mg/kg/injection, schedule: Q01DX009 (ip), vehicle: water 96 % of control | dose: 12.5 mg/kg/injection, schedule: Q01DX009 (ip), vehicle: water 91 % of control | dose: 25.0 mg/kg/injection, schedule: Q01DX009 (ip), vehicle: water 94 % of control and 88 % of control | dose: 200.0 mg/kg/injection, schedule: Q01DX009 (ip), vehicle: water 92 % of control

CC(Cl)CO (configuration not stated)
inactive: dose: 75.0 mg/kg/injection, schedule: Q01DX001 (ip), vehicle: carboxymethylcellulose (CMC) 108 % of control | dose: 150.0 mg/kg/injection, schedule: Q01DX001 (ip), vehicle: carboxymethylcellulose (CMC) 97 % of control | dose: 300.0 mg/kg/injection, schedule: Q01DX001 (ip), vehicle: carboxymethylcellulose (CMC) 97 % of control

O=C(NCCCCN1CC1)C(=O)Nc1ccccc1
inactive: dose: 12.5 mg/kg/injection, schedule: Q04DX003 (ip), vehicle: Klucel (hydroxypropylcellulose) (HPC) 97 % of control | dose: 25.0 mg/kg/injection, schedule: Q04DX003 (ip), vehicle: Klucel (hydroxypropylcellulose) (HPC) 93 % of control | dose: 50.0 mg/kg/injection, schedule: Q04DX003 (ip), vehicle: Klucel (hydroxypropylcellulose) (HPC) 98 % of control | [4] 103 % of control

CCCCN(C)c1ncnc2[nH]ncc12
inactive: dose: 50.0 mg/kg/injection, schedule: Q01DX001 (ip), vehicle: saline 104 % of control | dose: 50.0 mg/kg/injection, schedule: Q01DX009 (ip), vehicle: saline 116 % of control | dose: 50.0 mg/kg/injection, schedule: Q04DX003 (ip), vehicle: saline 106 % of control | [5] 106 % of control | [6] 110 % of control | dose: 200.0 mg/kg/injection, schedule: Q01DX001 (ip), vehicle: saline 104 % of control | [7] 100 % of control

COc1ccc(C=C2C(=O)NC(=O)NC2=O)cc1OC
inactive: [8] 92 % of control | [9] 96 % of control | [10] 96 % of control

O=C(c1ccc(F)cc1)C(F)(F)F
inactive: dose: 100.0 mg/kg/injection, schedule: Q01DX001 (ip), vehicle: Klucel (hydroxypropylcellulose) (HPC) 95 % of control and 101 % of control | dose: 100.0 mg/kg/injection, schedule: Q04DX003 (ip), vehicle: other 104 % of control | dose: 200.0 mg/kg/injection, schedule: Q01DX001 (ip), vehicle: Klucel (hydroxypropylcellulose) (HPC) 103 % of control | dose: 200.0 mg/kg/injection, schedule: Q04DX003 (ip), vehicle: other 108 % of control | dose: 400.0 mg/kg/injection, schedule: Q01DX001 (ip), vehicle: Klucel (hydroxypropylcellulose) (HPC) 95 % of control and 101 % of control | dose: 400.0 mg/kg/injection, schedule: Q04DX003 (ip), vehicle: other 94 % of control

CCN(CC)c1ccc(Sc2ccc([N+](=O)[O-])cc2[N+](=O)[O-])cc1
inactive: [11] 88 % of control | [12] 92 % of control | [13] 92 % of control

N/N=C(/CC1C(=O)Nc2ccccc21)c1ccccc1 (configuration not stated)
inactive: dose: 100.0 mg/kg/injection, schedule: Q04DX002 (ip), vehicle: Klucel (hydroxypropylcellulose) (HPC) 94 % of control | dose: 200.0 mg/kg/injection, schedule: Q04DX002 (ip), vehicle: Klucel (hydroxypropylcellulose) (HPC) 108 % of control | dose: 400.0 mg/kg/injection, schedule: Q04DX002 (ip), vehicle: Klucel (hydroxypropylcellulose) (HPC) 91 % of control

O=C(Nc1ccccc1F)N1CCCCC1
inactive: dose: 100.0 mg/kg/injection, schedule: Q01DX009 (ip), vehicle: gum acacia 97 % of control | dose: 200.0 mg/kg/injection, schedule: Q01DX009 (ip), vehicle: gum acacia 97 % of control | dose: 400.0 mg/kg/injection, schedule: Q01DX009 (ip), vehicle: gum acacia 100 % of control

O=C(/C=C1\C(=O)Nc2ccccc21)/C=C1/C(=O)Nc2ccccc21
inactive: [9] 93 % of control

CCC(C)C(NC(=O)C1CSC(C)(C)N1C=O)C(=O)OC (configuration not stated)
inactive: [6] 106 % of control | [7] 97 % of control | dose: 400.0 mg/kg/injection, schedule: Q04DX003 (ip), vehicle: saline 103 % of control

COc1ccc(OC)c2ncccc12
inactive: [5] 104 % of control

COC(=O)c1ccc(OS(=O)(=O)c2cccc([N+](=O)[O-])c2)cc1
inactive: [9] 96 % of control | [4] 90 % of control | [10] 98 % of control | dose: 200.0 mg/kg/injection, schedule: Q04DX003 (ip), vehicle: Klucel (hydroxypropylcellulose) (HPC) 95 % of control | dose: 400.0 mg/kg/injection, schedule: Q01DX009 (ip), vehicle: Klucel (hydroxypropylcellulose) (HPC) 118 % of control | dose: 400.0 mg/kg/injection, schedule: Q04DX003 (ip), vehicle: Klucel (hydroxypropylcellulose) (HPC) 90 % of control

COc1cccc(C[Si](C)C)c1
inactive: [14] 104 % of control | [15] 107 % of control

COP(=O)(C(OC(=O)C(C)(C)C)=C(C)C)N(C)C (configuration not stated)
inactive: [14] 97 % of control | [15] 96 % of control | dose: 400.0 mg/kg/injection, schedule: Q04DX003 (ip), vehicle: saline with Tween-80 96 % of control

CC(=O)C(C)C(=O)c1cc(C)c(Br)s1 (configuration not stated)
inactive: [11] 94 % of control | [12] 97 % of control | [13] 94 % of control

CC(C)(C)NCC(CN(CC(CNC(C)(C)C)C(=O)c1ccccc1)C(C)(C)C)C(=O)c1ccccc1 (configuration not stated)
inactive: dose: 12.5 mg/kg/injection, schedule: Q01DX009 (ip), vehicle: Klucel (hydroxypropylcellulose) (HPC) 104 % of control | dose: 25.0 mg/kg/injection, schedule: Q01DX009 (ip), vehicle: Klucel (hydroxypropylcellulose) (HPC) 101 % of control | [8] 106 % of control | [4] 93 % of control

C=CCC1CC2CC(C1C)C2(C)C (configuration not stated)
inactive: dose: 50.0 mg/kg/injection, schedule: Q01DX009 (ip), vehicle: saline with Tween-80 93 % of control | [2] 101 % of control | [3] 93 % of control

Cc1ccc([NH-])cc1.Cc1ccc([NH-])cc1.[Cl][Pt+2][Cl]
inactive: dose: 6.25 mg/kg/injection, schedule: Q01DX009 (ip), vehicle: saline with Tween-80 101 % of control | [1] 95 % of control
